According to the NIST ThermoML archive (doi:10.1021/acs.jced.6b00354):
± gives the expanded uncertainty stated by the source.

Assay: mn = molality of the nth substance listed, in mol/kg
Conditions: 100 kPa, Liquid, Alternating current cell with electrodes

CC(=O)N(C)C [N,N-dimethylethanamide] + CCCCn1cc[n+](C)c1.F[B-](F)(F)F
electrical conductivity [S/m]
Conditions	283.15 K	288.15 K	293.15 K	298.15 K	303.15 K	308.15 K	313.15 K	318.15 K
m2 = 0.0003956	0.0021612 ± 1.1e-06	0.0023283 ± 1.2e-06	0.0025019 ± 1.2e-06	0.0026803 ± 1.3e-06	0.0028647 ± 1.4e-06	0.0030385 ± 1.4e-06	0.00322 ± 1.5e-06	0.0034051 ± 1.6e-06
m2 = 0.000671	0.0036275 ± 1.9e-06	0.0039047 ± 1.9e-06	0.004196 ± 2.1e-06	0.0044945 ± 2.2e-06	0.0047984 ± 2.3e-06	0.0050953 ± 2.4e-06	0.0053975 ± 2.5e-06	0.0057039 ± 2.6e-06
m2 = 0.0009718	0.0051999 ± 2.7e-06	0.0056027 ± 2.8e-06	0.0060224 ± 2.9e-06	0.0064451 ± 3.1e-06	0.0068768 ± 3.2e-06	0.0073024 ± 3.4e-06	0.0077338 ± 3.5e-06	0.0081707 ± 3.6e-06
m2 = 0.001959	0.010227 ± 5e-06	0.011022 ± 5e-06	0.011831 ± 6e-06	0.012666 ± 6e-06	0.013508 ± 6e-06	0.014339 ± 7e-06	0.015175 ± 7e-06	0.01603 ± 7e-06
m2 = 0.002976	0.01525 ± 8e-06	0.016416 ± 8e-06	0.017623 ± 9e-06	0.018852 ± 9e-06	0.020112 ± 9e-06	0.021302 ± 1e-05	0.022571 ± 1e-05	0.023828 ± 1.1e-05
m2 = 0.003778	0.019105 ± 1e-05	0.020563 ± 1e-05	0.022088 ± 1.1e-05	0.023628 ± 1.1e-05	0.025189 ± 1.2e-05	0.026664 ± 1.2e-05	0.028258 ± 1.3e-05	0.029817 ± 1.3e-05
m2 = 0.005993	0.02947 ± 1.5e-05	0.03171 ± 1.6e-05	0.034016 ± 1.6e-05	0.036401 ± 1.7e-05	0.038756 ± 1.8e-05	0.041015 ± 1.9e-05	0.043439 ± 2e-05	0.045784 ± 2e-05
m2 = 0.007976	0.03841 ± 1.9e-05	0.041353 ± 2e-05	0.044368 ± 2.1e-05	0.047396 ± 2.2e-05	0.050472 ± 2.3e-05	0.053564 ± 2.4e-05	0.056503 ± 2.5e-05	0.059519 ± 2.6e-05
m2 = 0.009999	0.047279 ± 2.4e-05	0.050928 ± 2.5e-05	0.054557 ± 2.6e-05	0.058325 ± 2.7e-05	0.062033 ± 2.9e-05	0.065747 ± 3e-05	0.069408 ± 3.1e-05	0.073087 ± 3.2e-05
m2 = 0.01203	0.055972 ± 2.8e-05	0.060177 ± 2.9e-05	0.064588 ± 3.1e-05	0.069017 ± 3.2e-05	0.073419 ± 3.4e-05	0.077654 ± 3.5e-05	0.082086 ± 3.7e-05	0.086346 ± 3.8e-05
m2 = 0.01408	0.064541 ± 3.2e-05	0.069536 ± 3.4e-05	0.074489 ± 3.6e-05	0.079576 ± 3.7e-05	0.084557 ± 3.9e-05	0.089517 ± 4e-05	0.094529 ± 4.2e-05	0.099432 ± 4.4e-05
m2 = 0.01598	0.072339 ± 3.6e-05	0.07784 ± 3.8e-05	0.083519 ± 4e-05	0.089184 ± 4.2e-05	0.094781 ± 4.3e-05	0.10031 ± 5e-05	0.10588 ± 5e-05	0.1113 ± 5e-05
